# Experimental data reported in ChEMBL document CHEMBL1156106 (J Med Chem, 2009).
# Legend:
# Rattus norvegicus [1] = assay: Effect on behavioural activity in rat assessed as cocaine-induced lever response at 10 mg/kg, ip pretreated with cocaine for 75 mins by drug-discrimination studies; type: functional; settings: route intraperitoneal
# Rattus norvegicus [2] = assay: Effect on behavioural activity in rat assessed as cocaine-induced lever response at 25 mg/kg, ip pretreated with cocaine for 75 mins by drug-discrimination studies; type: functional; settings: route intraperitoneal
# Rattus norvegicus [3] = assay: Effect on behavioural activity in rat assessed as cocaine-induced lever response at 50 mg/kg, ip pretreated with cocaine for 75 mins by drug-discrimination studies; type: functional; settings: route intraperitoneal
# Rattus norvegicus [4] = assay: Effect on behavioural activity in rat assessed as cocaine-induced lever response at 100 mg/kg, ip pretreated with cocaine for 75 mins by drug-discrimination studies; type: functional; settings: route intraperitoneal
# Rattus norvegicus [5] = assay: Effect on behavioural activity in rat assessed as cocaine-induced lever response at 10 mg/kg, po pretreated with cocaine for 45 mins by drug-discrimination studies; type: functional
# Rattus norvegicus [6] = assay: Effect on behavioural activity in rat assessed as cocaine-induced lever response at 10 mg/kg, po pretreated with cocaine for 90 mins by drug-discrimination studies; type: functional
# Rattus norvegicus [7] = assay: Effect on behavioural activity in rat assessed as cocaine-induced lever response at 10 mg/kg, po pretreated with cocaine for 180 mins by drug-discrimination studies; type: functional
# Rattus norvegicus [8] = assay: Effect on behavioural activity in rat assessed as cocaine-induced lever response at 25 mg/kg, po pretreated with cocaine for 45 mins by drug-discrimination studies; type: functional
# Rattus norvegicus [9] = assay: Effect on behavioural activity in rat assessed as cocaine-induced lever response at 25 mg/kg, po pretreated with cocaine for 90 mins by drug-discrimination studies; type: functional
# Rattus norvegicus [10] = assay: Effect on behavioural activity in rat assessed as cocaine-induced lever response at 25 mg/kg, po pretreated with cocaine for 180 mins by drug-discrimination studies; type: functional
# Rattus norvegicus [11] = assay: Effect on behavioural activity in rat assessed as cocaine-induced lever response at 25 mg/kg, po pretreated with cocaine for 360 mins by drug-discrimination studies; type: functional
# Rattus norvegicus [12] = assay: Effect on behavioural activity in rat assessed as cocaine-induced lever response at 50 mg/kg, po pretreated with cocaine for 45 mins by drug-discrimination studies; type: functional
# Rattus norvegicus [13] = assay: Effect on behavioural activity in rat assessed as cocaine-induced lever response at 50 mg/kg, po pretreated with cocaine for 90 mins by drug-discrimination studies; type: functional
# Rattus norvegicus [14] = assay: Effect on behavioural activity in rat assessed as cocaine-induced lever response at 50 mg/kg, po pretreated with cocaine for 180 mins by drug-discrimination studies; type: functional
# Rattus norvegicus [15] = assay: Effect on behavioural activity in rat assessed as cocaine-induced lever response at 50 mg/kg, po pretreated with cocaine for 360 mins by drug-discrimination studies; type: functional
# [16] = molecular target: T1, Sodium-dependent serotonin transporter (Homo sapiens, UniProt P31645); assay: biochemical; type: cell-based, HEK293
# Mus musculus [17] = assay: Antidepressant activity in ip dosed mouse assessed as stimulation of locomotor activity; type: functional
# Mus musculus [18] = assay: Antidepressant activity in ip dosed mouse assessed as stimulation of locomotor activity relative to cocaine; type: functional
# Mus musculus [19] = assay: Antidepressant activity in ip dosed mouse assessed as time to reach peak stimulation of locomotor activity; type: functional
# Mus musculus [20] = assay: Antidepressant activity in ip dosed mouse assessed as duration of locomotor activity; type: functional
# Rattus norvegicus [21] = assay: Effect on behavioural activity in po dosed rat assessed as cocaine-induced lever response pretreated with cocaine by drug-discrimination studies; type: functional
# Rattus norvegicus [22] = assay: Effect on behavioural activity in rat assessed as cocaine-induced lever response at 5 mg/kg, ip pretreated with cocaine for 60 mins by drug-discrimination studies; type: functional; settings: route intraperitoneal
# Rattus norvegicus [23] = assay: Effect on behavioural activity in rat assessed as cocaine-induced lever response at 10 mg/kg, ip pretreated with cocaine for 60 mins by drug-discrimination studies; type: functional; settings: route intraperitoneal
# Rattus norvegicus [24] = assay: Effect on behavioural activity in rat assessed as cocaine-induced lever response at 25 mg/kg, ip pretreated with cocaine for 60 mins by drug-discrimination studies; type: functional; settings: route intraperitoneal
# [25] = molecular target: T2, Sodium-dependent dopamine transporter (Homo sapiens, UniProt Q01959); assay: Displacement of [125I]RTI55 from cloned human DAT expressed in HEK293 cells; type: cell-based
# [26] = molecular target: T3, Sodium-dependent noradrenaline transporter (Homo sapiens, UniProt P23975); assay: Displacement of [125I]RTI55 from cloned human NET expressed in HEK293 cells; type: cell-based
# [27] = molecular target: T2, Sodium-dependent dopamine transporter; assay: Inhibition of [3H]dopamine reuptake at human DAT expressed in HEK293 cells; type: cell-based
# [28] = molecular target: T1, Sodium-dependent serotonin transporter; assay: Inhibition of [3H]serotonin reuptake at human SERT expressed in HEK293 cells; type: cell-based
# [29] = molecular target: T3, Sodium-dependent noradrenaline transporter; assay: Inhibition of [3H]norepinephrine reuptake at human NET expressed in HEK293 cells; type: cell-based
# Rattus norvegicus [30] = assay: Toxicity in rat assessed as adverse effects at 50 mg/kg, ip; type: organism-based; design: dose 50 mg/kg, route intraperitoneal; settings: in vivo
# Rattus norvegicus [31] = assay: Effect on behavioural activity in rat assessed as cocaine-induced lever response at 25 mg/kg, ip pretreated with cocaine for 45 mins by drug-discrimination studies; type: functional; settings: route intraperitoneal
# Rattus norvegicus [32] = assay: Effect on behavioural activity in rat assessed as cocaine-induced lever response at 50 mg/kg, ip pretreated with cocaine for 45 mins by drug-discrimination studies; type: functional; settings: route intraperitoneal
# Rattus norvegicus [33] = assay: Effect on behavioural activity in rat assessed as cocaine-induced lever response at 10 mg/kg, ip pretreated with cocaine for 45 mins by drug-discrimination studies; type: functional; settings: route intraperitoneal
# Rattus norvegicus [34] = assay: Effect on behavioural activity in rat assessed as cocaine-induced lever response at 100 mg/kg, ip pretreated with cocaine for 45 mins by drug-discrimination studies; type: functional; settings: route intraperitoneal
# Rattus norvegicus [35] = assay: Effect on behavioural activity in rat assessed as cocaine-induced lever response at 10 mg/kg, ip pretreated with cocaine for 80 mins by drug-discrimination studies; type: functional; settings: route intraperitoneal
# Rattus norvegicus [36] = assay: Effect on behavioural activity in rat assessed as cocaine-induced lever response at 25 mg/kg, ip pretreated with cocaine for 80 mins by drug-discrimination studies; type: functional; settings: route intraperitoneal
# Rattus norvegicus [37] = assay: Effect on behavioural activity in rat assessed as cocaine-induced lever response at 50 mg/kg, ip pretreated with cocaine for 80 mins by drug-discrimination studies; type: functional; settings: route intraperitoneal
# Rattus norvegicus [38] = assay: Effect on behavioural activity in rat assessed as cocaine-induced lever response at 100 mg/kg, ip pretreated with cocaine for 80 mins by drug-discrimination studies; type: functional; settings: route intraperitoneal
# T3 sequence (P23975 whole entry): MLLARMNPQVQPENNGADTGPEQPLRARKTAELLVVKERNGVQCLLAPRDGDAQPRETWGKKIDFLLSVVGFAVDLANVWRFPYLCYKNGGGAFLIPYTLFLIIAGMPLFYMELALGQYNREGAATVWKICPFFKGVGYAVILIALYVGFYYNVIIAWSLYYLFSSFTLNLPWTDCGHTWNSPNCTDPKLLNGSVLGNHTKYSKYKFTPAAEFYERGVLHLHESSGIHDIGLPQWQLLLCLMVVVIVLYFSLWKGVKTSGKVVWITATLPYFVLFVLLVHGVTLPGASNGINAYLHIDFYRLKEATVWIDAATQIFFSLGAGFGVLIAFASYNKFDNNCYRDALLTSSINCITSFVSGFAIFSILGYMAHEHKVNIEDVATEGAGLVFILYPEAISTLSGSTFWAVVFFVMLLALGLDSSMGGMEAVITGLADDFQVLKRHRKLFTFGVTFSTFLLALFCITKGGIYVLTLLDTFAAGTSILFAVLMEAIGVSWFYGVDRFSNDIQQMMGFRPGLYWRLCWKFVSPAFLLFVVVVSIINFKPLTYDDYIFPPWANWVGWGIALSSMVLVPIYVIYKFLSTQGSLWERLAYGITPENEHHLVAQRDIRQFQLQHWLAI
# T2 sequence (Q01959 whole entry): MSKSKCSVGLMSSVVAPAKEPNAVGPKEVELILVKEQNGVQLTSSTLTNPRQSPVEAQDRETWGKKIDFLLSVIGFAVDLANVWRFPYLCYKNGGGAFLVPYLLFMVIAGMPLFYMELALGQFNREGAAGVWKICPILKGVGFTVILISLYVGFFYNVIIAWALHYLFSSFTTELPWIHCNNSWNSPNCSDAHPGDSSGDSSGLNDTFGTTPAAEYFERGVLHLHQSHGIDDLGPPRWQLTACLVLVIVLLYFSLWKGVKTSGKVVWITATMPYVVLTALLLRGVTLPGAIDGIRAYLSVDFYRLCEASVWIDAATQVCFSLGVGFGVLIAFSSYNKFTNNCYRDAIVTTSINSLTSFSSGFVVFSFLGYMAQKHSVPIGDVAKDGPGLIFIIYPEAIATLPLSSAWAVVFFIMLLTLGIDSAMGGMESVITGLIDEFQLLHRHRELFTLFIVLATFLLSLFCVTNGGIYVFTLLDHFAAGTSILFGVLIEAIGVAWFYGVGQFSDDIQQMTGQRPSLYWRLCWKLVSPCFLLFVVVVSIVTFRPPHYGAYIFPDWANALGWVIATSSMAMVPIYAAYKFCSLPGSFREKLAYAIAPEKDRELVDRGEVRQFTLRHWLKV
# T1 sequence (P31645 whole entry): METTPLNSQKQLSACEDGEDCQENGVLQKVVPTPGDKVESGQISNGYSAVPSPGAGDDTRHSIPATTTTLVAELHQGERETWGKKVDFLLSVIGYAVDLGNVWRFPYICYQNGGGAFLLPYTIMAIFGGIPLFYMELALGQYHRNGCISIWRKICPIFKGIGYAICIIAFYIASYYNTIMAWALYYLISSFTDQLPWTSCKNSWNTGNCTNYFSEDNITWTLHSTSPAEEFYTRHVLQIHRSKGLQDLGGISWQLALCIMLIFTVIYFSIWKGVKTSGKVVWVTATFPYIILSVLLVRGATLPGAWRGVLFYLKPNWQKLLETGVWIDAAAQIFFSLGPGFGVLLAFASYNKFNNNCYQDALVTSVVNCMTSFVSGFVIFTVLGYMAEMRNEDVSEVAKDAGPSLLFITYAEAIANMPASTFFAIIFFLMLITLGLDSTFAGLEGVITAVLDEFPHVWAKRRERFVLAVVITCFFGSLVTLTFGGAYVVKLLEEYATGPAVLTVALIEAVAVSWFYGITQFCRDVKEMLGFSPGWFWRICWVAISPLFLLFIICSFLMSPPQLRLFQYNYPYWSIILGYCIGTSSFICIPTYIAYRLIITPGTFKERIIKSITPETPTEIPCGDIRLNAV
smiles,measurement,setting,value
CCCCCCC(NC(C)(C)C)C(=O)c1cccc(Cl)c1 (centres undefined),Activity,Rattus norvegicus [1],0%
same,Activity,Rattus norvegicus [2],48.5%
same,Activity,Rattus norvegicus [3],49.9%
same,Activity,Rattus norvegicus [4],67.2%
same,Activity,Rattus norvegicus [5],0%
same,Activity,Rattus norvegicus [6],0%
same,Activity,Rattus norvegicus [7],0%
same,Activity,Rattus norvegicus [8],0%
same,Activity,Rattus norvegicus [9],0%
same,Activity,Rattus norvegicus [10],0%
same,Activity,Rattus norvegicus [11],0%
same,Activity,Rattus norvegicus [12],83%
same,Activity,Rattus norvegicus [13],17%
same,Activity,Rattus norvegicus [14],25%
same,Activity,Rattus norvegicus [15],0%
same,Ki,[16],> 10 µM
same,ED50,Mus musculus [17],5.6 mg/kg
same,Activity,Mus musculus [18],94%
same,Time to peak locomotor stimulation,Mus musculus [19],110 min
same,Time,Mus musculus [20],130 min
same,ED50,Rattus norvegicus [21],46.9 mg/kg
CC(C)(C)NC(CCC1CCCCC1)C(=O)c1cccc(Cl)c1 (centres undefined),Activity,Rattus norvegicus [22],0.2%
same,Activity,Rattus norvegicus [23],0.7%
same,Activity,Rattus norvegicus [24],69.6%
same,Ki,[25],1.7 µM
same,Ki,[16],6.2 µM
same,Ki,[26],3.8 µM
same,IC50,[27],> 10 µM
same,IC50,[28],> 10 µM
same,IC50,[29],> 10 µM
same,ED50,Mus musculus [17],14.1 mg/kg
same,Activity,Mus musculus [18],33%
same,Time to peak locomotor stimulation,Mus musculus [19],60 min
same,Time,Mus musculus [20],160 min
same,Activity,Rattus norvegicus [30],Toxic
CCCCCC(NC(C)(C)C)C(=O)c1cccc(Cl)c1 (centres undefined),Ki,[16],> 10 µM
same,ED50,Mus musculus [17],12.9 mg/kg
same,Activity,Mus musculus [18],90%
same,Time to peak locomotor stimulation,Mus musculus [19],60 min
same,Time,Mus musculus [20],280 min
same,Activity,Rattus norvegicus [31],1%
same,Activity,Rattus norvegicus [32],50.9%
CC(NC(C)(C)C)C(=O)c1ccc(F)c(F)c1 (centres undefined),Ki,[25],> 10 µM
same,Ki,[16],> 10 µM
same,Ki,[26],> 10 µM
same,Activity,Mus musculus [18],58%
same,Time to peak locomotor stimulation,Mus musculus [19],10 min
same,Time,Mus musculus [20],60 min
same,Activity,Rattus norvegicus [33],1.7%
same,Activity,Rattus norvegicus [34],63.9%
CC(NC(C)(C)C)C(=O)c1ccc(Br)cc1 (centres undefined),Ki,[26],> 10 µM
same,ED50,Mus musculus [17],29.5 mg/kg
same,Activity,Mus musculus [18],54%
same,Time to peak locomotor stimulation,Mus musculus [19],140 min
same,Time,Mus musculus [20],160 min
same,Activity,Rattus norvegicus [35],1.7%
same,Activity,Rattus norvegicus [36],16.7%
same,Activity,Rattus norvegicus [37],20%
same,Activity,Rattus norvegicus [38],0.5%
